In the NIST ThermoML archive (doi:10.1016/j.fluid.2007.11.005):
Numbers after ± are expanded uncertainties.

Conditions: Liquid, Bellows volumetry

CCCCn1cc[n+](C)c1.F[B-](F)(F)F [1-butyl-3-methylimidazolium tetrafluoroborate]
mass density [kg/m3]
Conditions | 313.1 K | 332.6 K | 352.6 K | 372.7 K | 392.8 K | 412.9 K | 432.6 K | 452.3 K | 472.2 K
100 kPa | 1191 ± 3 | – | – | – | – | – | – | – | –
10000 kPa | 1195 ± 3 | 1182 ± 3 | 1168 ± 3 | 1155 ± 3 | 1142 ± 3 | 1129 ± 3 | 1116 ± 3 | 1102 ± 3 | 1090 ± 2
20000 kPa | 1200 ± 3 | 1186 ± 3 | 1173 ± 3 | 1160 ± 3 | 1148 ± 3 | 1135 ± 3 | 1122 ± 3 | 1108 ± 3 | 1096 ± 2
30000 kPa | 1204 ± 3 | 1191 ± 3 | 1178 ± 3 | 1165 ± 3 | 1153 ± 3 | 1140 ± 3 | 1127 ± 3 | 1115 ± 3 | 1102 ± 3
40000 kPa | 1208 ± 3 | 1195 ± 3 | 1182 ± 3 | 1170 ± 3 | 1158 ± 3 | 1145 ± 3 | 1133 ± 3 | 1120 ± 3 | 1108 ± 3
50000 kPa | 1212 ± 3 | 1200 ± 3 | 1187 ± 3 | 1174 ± 3 | 1163 ± 3 | 1150 ± 3 | 1138 ± 3 | 1126 ± 3 | 1114 ± 3
60000 kPa | 1216 ± 3 | 1204 ± 3 | 1191 ± 3 | 1179 ± 3 | 1167 ± 3 | 1155 ± 3 | 1143 ± 3 | 1131 ± 3 | 1119 ± 3
70000 kPa | 1220 ± 3 | 1208 ± 3 | 1195 ± 3 | 1183 ± 3 | 1172 ± 3 | 1160 ± 3 | 1148 ± 3 | 1136 ± 3 | 1124 ± 3
80000 kPa | 1224 ± 3 | 1212 ± 3 | 1199 ± 3 | 1187 ± 3 | 1176 ± 3 | 1164 ± 3 | 1152 ± 3 | 1140 ± 3 | 1129 ± 3
90000 kPa | 1227 ± 3 | 1215 ± 3 | 1203 ± 3 | 1191 ± 3 | 1180 ± 3 | 1169 ± 3 | 1157 ± 3 | 1145 ± 3 | 1134 ± 3
100000 kPa | 1231 ± 3 | 1219 ± 3 | 1207 ± 3 | 1195 ± 3 | 1184 ± 3 | 1173 ± 3 | 1161 ± 3 | 1150 ± 3 | 1139 ± 3
110000 kPa | 1234 ± 3 | 1223 ± 3 | 1211 ± 3 | 1199 ± 3 | 1188 ± 3 | 1177 ± 3 | 1165 ± 3 | 1154 ± 3 | 1143 ± 3
120000 kPa | 1238 ± 3 | 1226 ± 3 | 1214 ± 3 | 1203 ± 3 | 1192 ± 3 | 1181 ± 3 | 1170 ± 3 | 1158 ± 3 | 1147 ± 3
130000 kPa | 1241 ± 3 | 1229 ± 3 | 1218 ± 3 | 1206 ± 3 | 1195 ± 3 | 1185 ± 3 | 1173 ± 3 | 1162 ± 3 | 1152 ± 3
140000 kPa | 1244 ± 3 | 1233 ± 3 | 1221 ± 3 | 1210 ± 3 | 1199 ± 3 | 1189 ± 3 | 1177 ± 3 | 1166 ± 3 | 1156 ± 3
150000 kPa | 1248 ± 3 | 1236 ± 3 | 1225 ± 3 | 1213 ± 3 | 1203 ± 3 | 1192 ± 3 | 1181 ± 3 | 1170 ± 3 | 1160 ± 3
160000 kPa | 1251 ± 3 | 1239 ± 3 | 1228 ± 3 | 1217 ± 3 | 1206 ± 3 | 1196 ± 3 | 1185 ± 3 | 1174 ± 3 | 1164 ± 3
170000 kPa | 1254 ± 3 | 1243 ± 3 | 1231 ± 3 | 1220 ± 3 | 1210 ± 3 | 1199 ± 3 | 1188 ± 3 | 1177 ± 3 | 1167 ± 3
180000 kPa | 1257 ± 3 | 1246 ± 3 | 1234 ± 3 | 1223 ± 3 | 1213 ± 3 | 1203 ± 3 | 1192 ± 3 | 1181 ± 3 | 1171 ± 3
190000 kPa | 1260 ± 3 | 1249 ± 3 | 1237 ± 3 | 1227 ± 3 | 1216 ± 3 | 1206 ± 3 | 1195 ± 3 | 1185 ± 3 | 1175 ± 3
200000 kPa | 1263 ± 3 | 1252 ± 3 | 1241 ± 3 | 1230 ± 3 | 1220 ± 3 | 1210 ± 3 | 1199 ± 3 | 1188 ± 3 | 1178 ± 3

CCCCn1cc[n+](C)c1.F[P-](F)(F)(F)(F)F [1-butyl-3-methylimidazolium hexafluorophosphate]
mass density [kg/m3]
Conditions | 312.8 K | 332.6 K | 353.2 K | 372.7 K | 392.8 K | 412.8 K | 432.6 K | 452.5 K | 472.3 K
100 kPa | 1352 ± 4 | – | – | – | – | – | – | – | –
10000 kPa | 1358 ± 4 | 1342 ± 3 | 1325 ± 3 | 1310 ± 3 | 1299 ± 3 | 1284 ± 3 | 1269 ± 3 | 1254 ± 3 | 1240 ± 3
20000 kPa | 1363 ± 4 | 1347 ± 4 | 1332 ± 3 | 1317 ± 3 | 1305 ± 3 | 1290 ± 3 | 1276 ± 3 | 1262 ± 3 | 1248 ± 3
30000 kPa | 1368 ± 4 | 1353 ± 4 | 1338 ± 3 | 1323 ± 3 | 1311 ± 3 | 1297 ± 3 | 1283 ± 3 | 1269 ± 3 | 1256 ± 3
40000 kPa | 1373 ± 4 | 1358 ± 4 | 1343 ± 3 | 1329 ± 3 | 1317 ± 3 | 1303 ± 3 | 1290 ± 3 | 1276 ± 3 | 1263 ± 3
50000 kPa | 1378 ± 4 | 1363 ± 4 | 1349 ± 4 | 1334 ± 3 | 1323 ± 3 | 1309 ± 3 | 1296 ± 3 | 1283 ± 3 | 1270 ± 3
60000 kPa | 1383 ± 4 | 1368 ± 4 | 1354 ± 4 | 1339 ± 3 | 1329 ± 3 | 1315 ± 3 | 1302 ± 3 | 1289 ± 3 | 1276 ± 3
70000 kPa | 1388 ± 4 | 1373 ± 4 | 1359 ± 4 | 1345 ± 4 | 1334 ± 3 | 1321 ± 3 | 1308 ± 3 | 1295 ± 3 | 1282 ± 3
80000 kPa | 1392 ± 4 | 1378 ± 4 | 1364 ± 4 | 1350 ± 4 | 1339 ± 3 | 1326 ± 3 | 1313 ± 3 | 1301 ± 3 | 1289 ± 3
90000 kPa | 1396 ± 4 | 1382 ± 4 | 1368 ± 4 | 1355 ± 4 | 1344 ± 4 | 1331 ± 3 | 1319 ± 3 | 1306 ± 3 | 1294 ± 3
100000 kPa | 1400 ± 4 | 1387 ± 4 | 1373 ± 4 | 1360 ± 4 | 1349 ± 4 | 1336 ± 3 | 1324 ± 3 | 1312 ± 3 | 1300 ± 3
110000 kPa | 1405 ± 4 | 1391 ± 4 | 1377 ± 4 | 1364 ± 4 | 1354 ± 4 | 1341 ± 4 | 1329 ± 3 | 1317 ± 3 | 1305 ± 3
120000 kPa | 1409 ± 4 | 1395 ± 4 | 1382 ± 4 | 1369 ± 4 | 1359 ± 4 | 1346 ± 4 | 1334 ± 3 | 1322 ± 3 | 1311 ± 3
130000 kPa | 1412 ± 4 | 1399 ± 4 | 1386 ± 4 | 1373 ± 4 | 1363 ± 4 | 1351 ± 4 | 1339 ± 4 | 1327 ± 3 | 1316 ± 3
140000 kPa | 1416 ± 4 | 1403 ± 4 | 1390 ± 4 | 1377 ± 4 | 1367 ± 4 | 1355 ± 4 | 1343 ± 4 | 1332 ± 3 | 1320 ± 3
150000 kPa | 1420 ± 4 | 1407 ± 4 | 1394 ± 4 | 1381 ± 4 | 1372 ± 4 | 1360 ± 4 | 1348 ± 4 | 1336 ± 4 | 1325 ± 3
160000 kPa | 1424 ± 4 | 1411 ± 4 | 1398 ± 4 | 1385 ± 4 | 1376 ± 4 | 1364 ± 4 | 1352 ± 4 | 1341 ± 4 | 1330 ± 4
170000 kPa | 1427 ± 4 | 1415 ± 4 | 1402 ± 4 | 1389 ± 4 | 1380 ± 4 | 1368 ± 4 | 1357 ± 4 | 1345 ± 4 | 1334 ± 4
180000 kPa | 1431 ± 4 | 1418 ± 4 | 1405 ± 4 | 1393 ± 4 | 1384 ± 4 | 1372 ± 4 | 1361 ± 4 | 1350 ± 4 | 1339 ± 4
190000 kPa | 1435 ± 4 | 1422 ± 4 | 1409 ± 4 | 1397 ± 4 | 1388 ± 4 | 1376 ± 4 | 1365 ± 4 | 1354 ± 4 | 1343 ± 4
200000 kPa | 1438 ± 4 | 1425 ± 4 | 1413 ± 4 | 1401 ± 4 | 1392 ± 4 | 1380 ± 4 | 1369 ± 4 | 1358 ± 4 | 1347 ± 4
